Experimental data reported in patent US8227428B2, “Anti-infammatory macrolide” (Glaxo Group Limited, priority 2009, dated 2012).

Legend:
[1] = Stability in bio-relevant media (SGF, Fasted SIF, Fed SIF) at 37° C.; type: physicochemical
Procedure: (§1) Stability in buffer solutions pH 2 to pH 8 at 25° C., and in bio-relevant media (SGF pH 1.6, Fasted SIF pH 6.5 and Fed SIF pH 5.0) at 37° C., during 24 hours is monitored. The samples are analysed by LC/MS.
SGF (Simulated Gastric Fluid) pH 1.6
Fasted SIF (Simulated Intestinal Fluid) pH 6.5
Fed SIF (Simulated Intestinal Fluid) pH 5.0
(§2) Flow: 0.3 mL/min Column temp.: 25° C. Sample temp.: 25° C. (for stability assay in buffer solutions) • 37° C. (for stability assay in bio-relevant media) Injector volume: 3 μL (without injection program) MS Conditions: Instrument HP MS API-ES, positive ion mode Mass Range: 150-1500 Fragmentor: 100 Gain: 1.0 Treshold: 150 Step size: 0.20 Gas Temperature: 350° C. Drying Gas Flow: 13 L/min Nebulizer Pressure: 35 psig Capillary Voltage Positive 4000 V • Negative 4000 V Sample Preparation: a) For Stability Assay in Buffer Solutions
b) For Stability Assay in Bio-Relevat Media
b1) For SGF Media pH 1.6 Testing:
Compounds are dissolved in SGF media pH 1.6 to give 0.2 mg/mL solution in case of compounds 1 and 2, and to give 0.1 mg/mL solution in case of compound 3. Solutions are then stored in a water bath at 37° C. and removed at the proper time point for LC/MS analysis. Before analysis, pH values of prepared sample solutions are checked and adjusted if necessary.
b2) For Fasted SIF Media pH 6.5 Testing:
(§3) Compounds are dissolved in Fasted SIF media pH 6.5 to give 2 mg/mL solution. Solutions are then dispatched into vials that are stored in a water bath at 37° C. and removed at the proper time point and diluted 10 times with CH3CN for LC/MS analysis. Before analysis, pH values of prepared sample solutions are checked and adjusted if necessary.
b3) For Fed SIF Media pH 5.0 Testing:
as §3, with “Fed” for “Fasted”, “5.0” for “6.5”, “40” for “10”

[2] = Stability in buffer solutions pH 2 to pH 8 at 25° C.; type: physicochemical
Procedure: as §1
Buffer Solutions and Physiologically Relevant Media Used in Stability Assay:
LC Conditions: Instrument HP1100
Column: Waters XBridge C18, 2.1×50 mm, 3.5 μm
Guard column: Waters XBridge C18, 2.1×10 mm, 3.5 μm
• A) 0.1% HCOOH/H2O • B) 0.1% HCOOH/CH3CN Gradient Timetable: […]
as §2
Compounds are dissolved in CH3CN to produce a 1 mg/mL stock solution. The stock solution is diluted to a concentration of 0.2 mg/mL (1 mL solution in 4 mL buffer) with appropriate buffer to produce a working solution.
Each solution at each pH is then dispatched into vials that are sealed and stored at room temperature in order to be analyzed at the proper time point. Before analysis, pH values of prepared sample solutions are checked and adjusted if neccessary.

## CC[C@H]1OC(=O)[C@H](C)[C@@H](O[C@H]2C[C@@](C)(OC)[C@@H](OC(=O)CCN(CC)CC)[C@H](C)O2)[C@H](C)[C@@H](O[C@@H]2O[C@H](C)C[C@H](NC)[C@H]2O)[C@](C)(OC)C[C@@H](C)C(=O)N[C@H](C)[C@@H](O)[C@]1(C)O [Example 2, 3′-N-Demethyl-4″-O-(3-diethylaminopropionoyl)-6-O-methyl-9a-aza-9a-homoerythromycin A]
[1]; 37° C., during 24 hours
  stability in bio-relevant media SGF pH 1.6 and Fasted SIF pH 6.5: Example 2 showed instability in bio-relevant media SGF pH 1.6 and in Fasted SIF pH 6.5.
[1]; Fasted SIF pH 6.5, 37° C., 1 h
  Percentage (Area %) of the compound observed in Bio-relevant media: 99.6 Area %
[1]; Fasted SIF pH 6.5, 37° C., 2 h
  Percentage (Area %) of the compound observed in Bio-relevant media: 98.0 Area %
[1]; Fasted SIF pH 6.5, 37° C., 3 h
  Percentage (Area %) of the compound observed in Bio-relevant media: 93.0 Area %
[1]; Fasted SIF pH 6.5, 37° C., 4 h
  Percentage (Area %) of the compound observed in Bio-relevant media: 89.7 Area %
[1]; Fasted SIF pH 6.5, 37° C., 5 h
  Percentage (Area %) of the compound observed in Bio-relevant media: 86.7 Area %
[1]; Fasted SIF pH 6.5, 37° C., Initial
  Percentage (Area %) of the compound observed in Bio-relevant media: 100 Area %
[1]; Fed SIF pH 5.0, 37° C., 1 h
  Percentage (Area %) of the compound observed in Bio-relevant media: 99.7 Area %
[1]; Fed SIF pH 5.0, 37° C., 2 h
  Percentage (Area %) of the compound observed in Bio-relevant media: 99.6 Area %
[1]; Fed SIF pH 5.0, 37° C., 3 h
  Percentage (Area %) of the compound observed in Bio-relevant media: 99.4 Area %
[1]; Fed SIF pH 5.0, 37° C., 4 h
  Percentage (Area %) of the compound observed in Bio-relevant media: 98.7 Area %
[1]; Fed SIF pH 5.0, 37° C., 5 h
  Percentage (Area %) of the compound observed in Bio-relevant media: 98.6 Area %
[1]; Fed SIF pH 5.0, 37° C., 24 h
  Percentage (Area %) of the compound observed in Bio-relevant media: 97.4 Area %
[1]; Fed SIF pH 5.0, 37° C., Initial
  Percentage (Area %) of the compound observed in Bio-relevant media: 100 Area %
[1]; SGF pH 1.6, 37° C., 15
  Percentage (Area %) of the compound observed in Bio-relevant media: 83.9 Area %
[1]; SGF pH 1.6, 37° C., 1 h
  Percentage (Area %) of the compound observed in Bio-relevant media: 99.3 Area %
[1]; SGF pH 1.6, 37° C., 2 h
  Percentage (Area %) of the compound observed in Bio-relevant media: 99.3 Area %
[1]; SGF pH 1.6, 37° C., 3 h
  Percentage (Area %) of the compound observed in Bio-relevant media: 96.6 Area %
[1]; SGF pH 1.6, 37° C., 4 h
  Percentage (Area %) of the compound observed in Bio-relevant media: 92.9 Area %
[1]; SGF pH 1.6, 37° C., 5 h
  Percentage (Area %) of the compound observed in Bio-relevant media: 92.3 Area %
[1]; SGF pH 1.6, 37° C., 6 h
  Percentage (Area %) of the compound observed in Bio-relevant media: 91.1 Area %
[1]; SGF pH 1.6, 37° C., 8 h
  Percentage (Area %) of the compound observed in Bio-relevant media: 90.1 Area %
[1]; SGF pH 1.6, 37° C., 10 h
  Percentage (Area %) of the compound observed in Bio-relevant media: 87.2 Area %
[1]; SGF pH 1.6, 37° C., 12 h
  Percentage (Area %) of the compound observed in Bio-relevant media: 85.4 Area %
[1]; SGF pH 1.6, 37° C., 18 h
  Percentage (Area %) of the compound observed in Bio-relevant media: 82.4 Area %
[1]; SGF pH 1.6, 37° C., 21 h
  Percentage (Area %) of the compound observed in Bio-relevant media: 81.0 Area %
[1]; SGF pH 1.6, 37° C., Initial
  Percentage (Area %) of the compound observed in Bio-relevant media: 100 Area %
[2]; 25° C., during 24 hours
  stability in buffers at pH 7 and at pH 8: showed instability
[2]; pH 2, 25° C., 2 h
  Percentage (Area %) of the compound observed in buffers: 100 Area %
[2]; pH 2, 25° C., 4 h
  Percentage (Area %) of the compound observed in buffers: 100 Area %
[2]; pH 2, 25° C., 6 h
  Percentage (Area %) of the compound observed in buffers: 98.7 Area %
[2]; pH 2, 25° C., 8 h
  Percentage (Area %) of the compound observed in buffers: 98.5 Area %
[2]; pH 2, 25° C., 12 h
  Percentage (Area %) of the compound observed in buffers: 97.6 Area %
[2]; pH 2, 25° C., 14 h
  Percentage (Area %) of the compound observed in buffers: 97.6 Area %
[2]; pH 2, 25° C., 18 h
  Percentage (Area %) of the compound observed in buffers: 97.5 Area %
[2]; pH 2, 25° C., 20 h
  Percentage (Area %) of the compound observed in buffers: 97.3 Area %
[2]; pH 2, 25° C., 22 h
  Percentage (Area %) of the compound observed in buffers: 97.2 Area %
[2]; pH 2, 25° C., 24 h
  Percentage (Area %) of the compound observed in buffers: 97.2 Area %
[2]; pH 2, 25° C., Initial
  Percentage (Area %) of the compound observed in buffers: 100 Area %
[2]; pH 3, 25° C., 2 h
  Percentage (Area %) of the compound observed in buffers: 100 Area %
[2]; pH 3, 25° C., 4 h
  Percentage (Area %) of the compound observed in buffers: 100 Area %
[2]; pH 3, 25° C., 6 h
  Percentage (Area %) of the compound observed in buffers: 98.8 Area %
[2]; pH 3, 25° C., 8 h
  Percentage (Area %) of the compound observed in buffers: 97.5 Area %
[2]; pH 3, 25° C., 12 h
  Percentage (Area %) of the compound observed in buffers: 97.3 Area %
[2]; pH 3, 25° C., 14 h
  Percentage (Area %) of the compound observed in buffers: 97.3 Area %
[2]; pH 3, 25° C., 18 h
  Percentage (Area %) of the compound observed in buffers: 97.0 Area %
[2]; pH 3, 25° C., 20 h
  Percentage (Area %) of the compound observed in buffers: 97.0 Area %
[2]; pH 3, 25° C., 22 h
  Percentage (Area %) of the compound observed in buffers: 97.0 Area %
[2]; pH 3, 25° C., 24 h
  Percentage (Area %) of the compound observed in buffers: 96.9 Area %
[2]; pH 3, 25° C., Initial
  Percentage (Area %) of the compound observed in buffers: 100 Area %
[2]; pH 4, 25° C., 2 h
  Percentage (Area %) of the compound observed in buffers: 100 Area %
[2]; pH 4, 25° C., 4 h
  Percentage (Area %) of the compound observed in buffers: 100 Area %
